The text below walks through data of article PMC9490176 (Frontiers in Pharmacology, 2022).

In this assay the test system is rat liver microsomes (RLMs). Description: Michaelis-Menten kinetics of pyrotinib metabolism in RLMs. The note with it: pyrotinib 0.5–25 μM in RLMs. It counts as in vitro ADME, Sprague-Dawley (SD) rat. The protocol: The rats were anesthetized with 10% chloral hydrate after 12 h of starvation. […] The rat liver tissue was then accurately removed and transferred to Petri dishes at 0–4°C. The tissues were homogenized in 0.15 mol/L KCl-PBS buffer and stored at 4°C. The homogenate (CR30NX, Eppendorf, Germany) was centrifuged at 9000 rpm at 4°C for 30 min. The supernatant was transferred to another tube and was centrifuged at 105000 rpm at 4°C for 60 min. The precipitate containing liver microsomes was removed and suspended in 0.15 mol/L KCl-PBS buffer (containing 0.25 mol/L sucrose) and stored at −80°C for later use. The liver microsomal concentration was 8.838 mg/ml after the determination with the BCA protein quantification kit (Thermo Scientific, Waltham, MA, United States). […]
GraphPad Prism 7.0 software (GraphPad Software Inc.) was used to calculate the enzyme kinetic parameters of substrates which include Vmax, Km, IC50, Ki, and αKi values. […] The PK characteristics, maximal plasma concentration (Cmax), time to peak plasma concentration (Tmax), apparent volume of distribution (Vz/F), area under the plasma concentration-time curve (AUC), elimination half-life (t1/2), plasma clearance (Cl/F), and mean residence time (MRT), were calculated using DAS (Drug and Statistics) software (Version 3.2.8, The People’s Hospital of Lishui, China). […]

The structures appear in SMILES notation.

As a reminder, the Km is the concentration of substrate that gives half-maximal velocity. For the molecule `CCOc1cc2ncc(C#N)c(Nc3ccc(OCc4ccccn4)c(Cl)c3)c2cc1NC(=O)/C=C/[C@H]1CCCN1C` [pyrotinib, Pyrotinib], the Km worked out at 4.09 µM and the Vmax was 58.33 pmol/min/mg protein.
